Where two headings read alike, the source gives them in different places.
Key:
[1] = system: MoNNet neurons; assay: Whole cell electrophysiology recordings in MoNNet, synaptic transmission across spheroids; assay type: cell-based, mice
Experimental: Whole cell recordings were performed as described previously (Crabtree et al., 2016; Crabtree et al., 2017), using borosilicate glass pipettes (initial resistance 3-5.5 MS2) which were filled with an intracellular solution containing: K methanesulfonate 125 mM, NaCl 10 mM, CaCl2) 1 mM, MgCl2 1 mM, HEPES 10 mM, EGTA 0.1 mM, MgATP 5 mM, NaGTP 0.5 mM. The pH was adjusted to 7.2 with KOH. Spontaneous synaptic events were assessed at −70 mV (presumptive glutamatergic) and at 0 mV (presumptive GABAergic). Excitatory and inhibitory evoked synaptic responses were assessed as follows. Evoked synaptic responses across spheroid units were elicited with electric stimulation applied with a concentric bipolar stimulating electrode (tip diameter 0.125 mm, FHC, Bowdinham, Me.) positioned on a spheroid >250 μm away from the spheroid containing the recorded neuron. The stimulus was set to 10V, a duration of 100 μs and applied at 10 Hz. […] Neurons were then held in voltage-clamp at 0 mV to assess evoked inhibitory synaptic responses. For assessing neuronal excitability in current-step, action potential firing was recorded in response to incremental (20 pA steps) depolarizing current injections (500 ms duration). Bridge balance of series resistance was employed and recordings with series resistance >20 MΩ were rejected. For current-step assays, resting membrane potential was adjusted to ˜−70 mV by injection of a small standing current. For voltage steps, cells were held at −70 mV, and 10 mV steps were applied ranging from −100 mV to 50 mV. Series resistance-related errors were partially corrected by using 70% prediction and 70% series resistance compensation.

[2] = system: NNet preparations; assay: Chronic ketamine treatment NNet model of schizophrenia pathophysiology, calcium imaging; settings: ketamine 10 μM every 24 hours vs saline control; imaging before and 2 days after
[3] = system: NNet preparation; assay: Modeling epileptic seizures with NNet (4-AP local injection, picrotoxin addition); assay type: cell-based
Experimental: 4-AP, a commonly used seizure inducing compound, was injected in a specific neurosphere of an NNet preparation. […] As shown in the magnified view (top row, third) these peaks are maintained during the time. […] In FIG. 6 the colored maps (bottom) show the spatial progression of the seizure waves in three different bouts (labeled as Epi. Events #1, #2, and #3). The directionality of seizure spread is maintained constant from bottom-left to top-right.

[4] = system: Setd1a+/− MoNNets; assay: Rescue of Setd1a+/- MoNNet network pathophysiology by LSD1 inhibition, Ca2+ imaging before and after treatment; assay type: cell-based, mice
From the text: Taking advantage of MoNNet properties, effective in vitro models of SCZ-associated network pathophysiology (SCZ-MoNNets) were developed. SCZ is characterized by psychosis, cognitive dysfunction and a broad spectrum of complex behavioral abnormalities (Clementz et al., 2016). Several recent studies in animal models have investigated the underlying circuit pathophysiology, identifying deficits in activity synchrony and degraded ensembles (Fenelon et al., 2013; Hamm et al., 2017; Hamm et al., 2020; Marissal et al., 2018; Sigurdsson et al., 2010; Zaremba et al., 2017). Therefore, the MoNNet approach provides a well suited system to develop quantitative in vitro models of SCZ-like network function pathophysiology. We developed and characterized MoNNet preparations (SCZ-MoNNets) from two well-studied genetic models—Setd1a+/− and Df(16)A+/−, which recapitulate SCZ-related cognitive and circuitry pathophysiology (Fenelon et al., 2013; Mukai et al., 2019). […] The lower-level deviations in molecular, cellular and synaptic pathways underlying the observed alterations in network states remain to be determined and may be different for each mutation.
Hippocampal neuronal cultures were generated from E17 to E18 embryos by building upon standard cell culture techniques, as follows. Pregnant mice were anesthetized under isoflurane, and euthanized by cervical dislocation. Hippocampus were dissected in Hibernate E (Gibco) iced cold media, and incubated in 0.25% Trypsin-EDTA (Gibco) at 37° C. for […]., followed by […] DNAse I (1 μg/ml; Sigma) incubation at room temperature. Mechanical dissociation of dissected hippocampus was performed by repeated pipetting with a fire-polished glass Pasteur pipet until a homogenous cell suspension was obtained. Cell viability was determined by Trypan Blue exclusion assay. Cell solution was then centrifuged at 150 g for […], and the supernatant was removed. Resulting cell pellet was resuspended in the culture media containing Neurobasal media, 2% B27, 0.5 mM Glutamate and 1% Penicillin/Streptomycin (Gibco). Cells were infected with AAV1.Syn.GCaMP6f.WPRE.SV40 virus ((Chen et al., 2013); Pennsylvania Vector Core, Cat #:AV-1-PV2822). For single spheroid cultures, 2% agarose 96 wells (400 μm diameter) micro-molds were created by using custom casts fabricated by 3D printing (UV-resin; Formlabs 3D printer). The agarose micro molds were equilibrated in the culture medium over a 24 h period prior to plating. […]
Imaging was performed using a wide-field fluorescence microscope (Leica M165FC) equipped with a long-pass GFP filter set (Leica filter set ET GFP M205FA/M165FC), 1.6× Plan Apo objective, 3.2× zoom and sCMOS camera (Hamamatsu ORCA-Flash 4.0). Time-lapse videos were recorded at 30 Hz for ˜4.5 min at 37° C. […]

[5] = target: LSD1 (Mus musculus, UniProt Q6ZQ88); settings: Mukai et al., 2019; cited from earlier work
[6] = picrotoxin added after 4-AP local injection
[7] = 2-day treatment, TCP 600 nM, ORY-1001 0.6-0.9 nM

N#Cc1cc2[nH]c(=O)c(=O)[nH]c2cc1[N+](=O)[O-] [CNQX]
evoked inhibitory synaptic transmission across spheroids ([1]; CNQX 10 μM blockade of glutamatergic transmission, cell held at 0 mV): robust evoked inhibitory synaptic transmission | evoked excitatory synaptic responses ([1]; CNQX 10 μM washed in with ACSF, voltage-clamp at −70 mV, 10 Hz stimulation of neighboring spheroid): completely ablated | spontaneous inhibitory synaptic events ([1]; CNQX 10 μM, neuron held at 0 mV): reduction

CNC1(c2ccccc2Cl)CCCCC1=O (stereo not drawn) [ketamine]
correlation among neurosphere units of NNet [2]: decreased

Nc1ccncc1 [4-AP]
seizure peaks ([3]; local injection in a specific neurosphere): typical high seizure peaks

picrotoxin
directionality of seizure spread [3, 6]: directionality becomes random | frequency of number of events [3, 6]: increased frequency of number of events

N[C@H]1CC[C@H](N[C@@H]2C[C@H]2c2ccccc2)CC1 [ORY-1001]
ensembles stability [4, 7]: partial rescue | network synchrony [4, 7]: partial rescue | cellular and behavioral defects [5]: effective in partial rescue

N[C@@H]1C[C@H]1c1ccccc1 (racemic) [TCP, Tranylcypromine]
ensembles stability [4]: partial rescue | network synchrony [4]: partial rescue

Source: patent publication US20200368288A1, “Hierarchic Neural Microphysiological System for Brain Function and Disorders” (The Trustees of Columbia University in the City of New York, priority 2018, published 2020)
